{
  "source": "paper PMC3625477",
  "about": "(Journal of acquired immune deficiency syndromes (1999), 2013)",
  "key": {"Total": {"assay": "Total", "type": "in vivo, HIV-infected pregnant women", "conditions": "for concentration at 12 h / AUC(0-t) / Cmax: plasma; for concentration at 12 h: oral, C12h; for AUC(0-t) / Cmax: po; for AUC(0-t): AUC0–12h"}, "[1]": {"type": "in vivo, HIV-infected pregnant women", "conditions": "for concentration at 12 h / AUC(0-t) / Cmax: female, human, plasma; for concentration at 12 h: oral, C12h; for concentration at 12 h / AUC(0-t) / Cmax / C12h / Cl: protein unbound, median; for AUC(0-t) / Cmax: po; for AUC(0-t): AUC0–12h"}, "wild type virus (HIV)": {"tested_on": "wild type virus (HIV)", "conditions": "unbound lopinavir; cited from earlier work"}, "wild-type virus": {"tested_on": "wild-type virus", "conditions": "total lopinavir; cited from earlier work"}, "[2]": {"tested_on": "blood plasma proteins albumin and alpha-1-acid-glycoprotein (AAG)", "conditions": "cited from earlier work"}, "[3]": {"conditions": "8 wks postpartum (PK4), LPV/RTV 400mg/100mg twice daily"}, "[4]": {"conditions": "20–24 wks (PK1), LPV/RTV 400mg/100mg twice daily"}, "[5]": {"conditions": "30 wks (PK2), LPV/RTV 400mg/100mg twice daily"}, "[6]": {"conditions": "32 wks (PK3), LPV/RTV 500mg/125mg twice daily"}, "[7]": {"conditions": "female, human, total (bound + unbound), 8 wks postpartum (PK4), LPV/RTV 400mg/100mg twice daily, median"}, "[8]": {"conditions": "female, human, total (bound + unbound), 20–24 wks (PK1), LPV/RTV 400mg/100mg twice daily, median"}, "[9]": {"conditions": "female, human, total (bound + unbound), 30 wks (PK2), LPV/RTV 400mg/100mg twice daily, median"}, "[10]": {"conditions": "female, human, total (bound + unbound), 32 wks (PK3), LPV/RTV 500mg/125mg twice daily, median"}, "[11]": {"conditions": "total (bound + unbound), 8 wks postpartum (PK4), LPV/RTV 400mg/100mg twice daily, median"}, "[12]": {"conditions": "total (bound + unbound), 20–24 wks (PK1), LPV/RTV 400mg/100mg twice daily, median"}, "[13]": {"conditions": "total (bound + unbound), 30 wks (PK2), LPV/RTV 400mg/100mg twice daily, median"}, "[14]": {"conditions": "total (bound + unbound), 32 wks (PK3), LPV/RTV 500mg/125mg twice daily, median"}},
  "note": "“And” between values parts separate entries of the source, which are not always exact repeats. Equal entries are not always repeated. Where two headings read alike, the source gives them in different places.",
  "data": [
    {"smiles": "Cc1cccc(C)c1OCC(=O)N[C@@H](Cc1ccccc1)[C@@H](O)C[C@H](Cc1ccccc1)NC(=O)[C@H](C(C)C)N1CCCNC1=O", "note": "[Lopinavir, lopinavir]", "values": [
      {"measurement": "postpartum total C12h higher than at any point during pregnancy", "setting": "Total; female, human, in vivo, 12 h", "result": "38–80%"},
      {"measurement": "women with total lopinavir C12h below 4 µg/mL", "setting": "Total; second trimester, standard-dose LPV/RTV, 12 participants", "result": 33, "unit": "%"},
      {"measurement": "increase in protein-unbound AUC0–12h with the increased dose", "setting": "[1]; PK2 vs PK3", "result": "< 15", "unit": "%"},
      {"measurement": "share of all unbound concentrations below the wild type IC50 of 0.00064 µg/mL", "setting": "[1]; all visits", "result": "Less than 2%"},
      {"measurement": "concentration at 12 h", "setting": "[1]; [3]", "result": 160, "unit": "ng/mL"},
      {"measurement": "concentration at 12 h", "setting": "[1]; [4]", "result": 150, "unit": "ng/mL"},
      {"measurement": "concentration at 12 h", "setting": "[1]; [5]", "result": 100, "unit": "ng/mL"},
      {"measurement": "concentration at 12 h", "setting": "[1]; [6]", "result": 120, "unit": "ng/mL"},
      {"measurement": "AUC(0-t)", "setting": "[1]; [3]", "result": 2600, "unit": "ng·h/mL"},
      {"measurement": "AUC(0-t)", "setting": "[1]; [4]", "result": 1600, "unit": "ng·h/mL"},
      {"measurement": "AUC(0-t)", "setting": "[1]; [5]", "result": 1600, "unit": "ng·h/mL"},
      {"measurement": "AUC(0-t)", "setting": "[1]; [6]", "result": 1800, "unit": "ng·h/mL"},
      {"measurement": "Cmax", "setting": "[1]; [3]", "result": 280, "unit": "ng/mL"},
      {"measurement": "Cmax", "setting": "[1]; [4]", "result": 180, "unit": "ng/mL"},
      {"measurement": "Cmax", "setting": "[1]; [5]", "result": 210, "unit": "ng/mL"},
      {"measurement": "Cmax", "setting": "[1]; [6]", "result": 240, "unit": "ng/mL"},
      {"measurement": "C12h", "setting": "[1]; [3]", "result": 160, "unit": "ng/mL"},
      {"measurement": "Cl", "setting": "[1]; [3]", "result": 92, "unit": "L/h"},
      {"measurement": "C12h", "setting": "[1]; [4]", "result": 150, "unit": "ng/mL"},
      {"measurement": "Cl", "setting": "[1]; [4]", "result": 123, "unit": "L/h"},
      {"measurement": "C12h", "setting": "[1]; [5]", "result": 100, "unit": "ng/mL"},
      {"measurement": "Cl", "setting": "[1]; [5]", "result": 155, "unit": "L/h"},
      {"measurement": "C12h", "setting": "[1]; [6]", "result": 120, "unit": "ng/mL"},
      {"measurement": "Cl", "setting": "[1]; [6]", "result": 131, "unit": "L/h"},
      {"measurement": "protein-unbound IC50 (50% inhibitory concentration)", "setting": "wild type virus (HIV)", "result": "0.64 ng/mL and 0.64 to 0.77 ng/mL"},
      {"measurement": "minimum effective concentration", "setting": "wild-type virus", "result": 1, "unit": "µg/mL"}
    ]},
    {"smiles": "CC(C)c1nc(CN(C)C(=O)N[C@H](C(=O)N[C@@H](Cc2ccccc2)C[C@H](O)[C@H](Cc2ccccc2)NC(=O)OCc2cncs2)C(C)C)cs1", "note": "[Ritonavir, ritonavir]", "values": [
      {"measurement": "concentration at 12 h", "setting": "Total; [7]", "result": 280, "unit": "ng/mL"},
      {"measurement": "concentration at 12 h", "setting": "Total; [8]", "result": 120, "unit": "ng/mL"},
      {"measurement": "concentration at 12 h", "setting": "Total; [9]", "result": 120, "unit": "ng/mL"},
      {"measurement": "concentration at 12 h", "setting": "Total; [10]", "result": 150, "unit": "ng/mL"},
      {"measurement": "AUC(0-t)", "setting": "Total; [8]", "result": 2500, "unit": "ng·h/mL"},
      {"measurement": "AUC(0-t)", "setting": "Total; [9]", "result": 2300, "unit": "ng·h/mL"},
      {"measurement": "AUC(0-t)", "setting": "Total; [10]", "result": 2400, "unit": "ng·h/mL"},
      {"measurement": "Cmax", "setting": "Total; [7]", "result": 620, "unit": "ng/mL"},
      {"measurement": "Cmax", "setting": "Total; [8]", "result": 350, "unit": "ng/mL"},
      {"measurement": "Cmax", "setting": "Total; [9]", "result": 300, "unit": "ng/mL"},
      {"measurement": "Cmax", "setting": "Total; [10]", "result": 360, "unit": "ng/mL"},
      {"measurement": "AUC0–12h", "setting": "Total; [11]", "result": 5200, "unit": "ng·h/mL"},
      {"measurement": "C12h", "setting": "Total; [11]", "result": 280, "unit": "ng/mL"},
      {"measurement": "Cl (apparent oral clearance)", "setting": "Total; [11]", "result": 12, "unit": "L/h"},
      {"measurement": "C12h", "setting": "Total; [12]", "result": 120, "unit": "ng/mL"},
      {"measurement": "Cl (apparent oral clearance)", "setting": "Total; [12]", "result": 29, "unit": "L/h"},
      {"measurement": "C12h", "setting": "Total; [13]", "result": 120, "unit": "ng/mL"},
      {"measurement": "Cl (apparent oral clearance)", "setting": "Total; [13]", "result": 33, "unit": "L/h"},
      {"measurement": "C12h", "setting": "Total; [14]", "result": 150, "unit": "ng/mL"},
      {"measurement": "Cl (apparent oral clearance)", "setting": "Total; [14]", "result": 37, "unit": "L/h"},
      {"measurement": "concentration at 12 h", "setting": "[1]; [3]", "result": 30, "unit": "ng/mL"},
      {"measurement": "concentration at 12 h", "setting": "[1]; [4]", "result": 20, "unit": "ng/mL"},
      {"measurement": "concentration at 12 h", "setting": "[1]; [5]", "result": 20, "unit": "ng/mL"},
      {"measurement": "concentration at 12 h", "setting": "[1]; [6]", "result": 20, "unit": "ng/mL"},
      {"measurement": "AUC(0-t)", "setting": "[1]; [3]", "result": 500, "unit": "ng·h/mL"},
      {"measurement": "AUC(0-t)", "setting": "[1]; [4]", "result": 400, "unit": "ng·h/mL"},
      {"measurement": "AUC(0-t)", "setting": "[1]; [6]", "result": 300, "unit": "ng·h/mL"},
      {"measurement": "Cmax", "setting": "[1]; [3]", "result": 80, "unit": "ng/mL"},
      {"measurement": "Cmax", "setting": "[1]; [4]", "result": 60, "unit": "ng/mL"},
      {"measurement": "Cmax", "setting": "[1]; [5]", "result": 50, "unit": "ng/mL"},
      {"measurement": "Cmax", "setting": "[1]; [6]", "result": 50, "unit": "ng/mL"},
      {"measurement": "Cl", "setting": "[1]; [3]", "result": 127, "unit": "L/h"},
      {"measurement": "Cl", "setting": "[1]; [4]", "result": 169, "unit": "L/h"},
      {"measurement": "Cl", "setting": "[1]; [5]", "result": 261, "unit": "L/h"},
      {"measurement": "Cl", "setting": "[1]; [6]", "result": 306, "unit": "L/h"},
      {"measurement": "bound to the blood plasma proteins", "setting": "[2]", "result": "98–99%"}
    ]}
  ]
}
